In patent publication US11352340B2, “Pyridine and pyridimine compounds as PI3K-gamma inhibitors” (Incyte Corporation, priority 2016, dated 2022):
Counter-ions that a name gives are not always drawn. Like-named read-outs stand apart in the source and are kept apart here.

Experiments:
[1] = molecular target: PI3Kδ (p110δ/p85α) Recombinant Human Protein (Homo sapiens (Human), UniProt O00329); test: PI3Kδ Scintillation Proximity Assay; assay type: biochemical; conditions: read-out: PI3K-delta SPA IC50
Method in brief: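 IC50 was fitted to percent solvent-control activity from SPA scintillation counts after WGA bead capture of 33P-labelled lipid product. Reaction: 120 min, room temperature, 3.4 nM p110δ/p85α, 20 μM PIP2, 2 μM ATP with tracer, MOPS pH 6.7 buffer containing MgCl2, DTT, CHAPS, 2% DMSO.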

[2] = molecular target: PI3Kγ (p110γ) Recombinant Human Protein (Homo sapiens (Human), UniProt P48736); test: PI3K-γ Scintillation Proximity Assay; assay type: biochemical; conditions: read-out: PI3K-gamma SPA IC50
Method in brief: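 Radiometric SPA: reaction at room temperature for 120 min using 2 μM ATP with [γ-33P]ATP tracer, 20 μM PIP2 substrate and 13 nM human PI3Kγ (MOPS pH 6.7, MgCl2, DTT, CHAPS; 2% DMSO). EDTA quench with WGA beads, scintillation count, and IC50 fit of percent-of-control activity.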

[3] = test system: Phosphorylated Ribosomal Protein S6 (RPS6) in THP-1 cells; test: THP-1 RPS6 ELISA Assay; assay type: cell-based, Human; conditions: MCP-1 stimulated, phospho-RPS6 ELISA, read-out: THP p-RPS6 ELISA IC50
Method: Example A. THP-1 RPS6 ELISA Assay
To measure the Phosphorylated Ribosomal Protein S6 (RPS6) in cell lysates, THP-1 cells (Human Acute Monocytic Leukemia) are purchased from ATCC (Manassas, Va.) and maintained in RPMI with 10% FBS (Gibco/Life Technologies, Carlsbad, Calif.). For the assay, THP-1 cells are serum starved overnight in RPMI, then plated in RPMI (2×10^5 cells/well in 90 μL) into 96-well flat-bottom tissue culture treated plates (Corning, Corning, N.Y.), in the presence or absence of a concentration range of test compounds. Covered plates are incubated for 2 hours at 37° C., 5% CO2 then treated with or without 10 nM MCP-1 (MYBioSource, San Diego, Calif.) for 15 minutes at 37° C., 5% CO2. Plates are centrifuged at 1600 RPM and supernatants are removed. Cells are lysed in Lysis Buffer (Cell Signaling, Danvers, Mass.) with Protease Inhibitor (Calbiochem/EMD, Germany), PMSF (Sigma, St Louis Mo.), HALTS (Thermo Fisher, Rockford, Ill.) for 30 min on wet ice. Cell lysates are frozen at −80° C. before testing. The lysates are tested in the Human/Mouse/Rat Phospho-RPS6 ELISA (R&D Systems, Inc. Minn, Minn.). The plate is measured using a microplate reader (SpectraMax M5—Molecular Devices, LLC Sunnyvale, Calif.) set to 450 nm with a wavelength correction of 540. IC50 determination is performed by fitting the curve of inhibitor percent inhibition versus the log of the inhibitor concentration using the GraphPad Prism 5.0 software.

Chain of PI3Kγ (p110γ) Recombinant Human Protein (P48736 whole entry): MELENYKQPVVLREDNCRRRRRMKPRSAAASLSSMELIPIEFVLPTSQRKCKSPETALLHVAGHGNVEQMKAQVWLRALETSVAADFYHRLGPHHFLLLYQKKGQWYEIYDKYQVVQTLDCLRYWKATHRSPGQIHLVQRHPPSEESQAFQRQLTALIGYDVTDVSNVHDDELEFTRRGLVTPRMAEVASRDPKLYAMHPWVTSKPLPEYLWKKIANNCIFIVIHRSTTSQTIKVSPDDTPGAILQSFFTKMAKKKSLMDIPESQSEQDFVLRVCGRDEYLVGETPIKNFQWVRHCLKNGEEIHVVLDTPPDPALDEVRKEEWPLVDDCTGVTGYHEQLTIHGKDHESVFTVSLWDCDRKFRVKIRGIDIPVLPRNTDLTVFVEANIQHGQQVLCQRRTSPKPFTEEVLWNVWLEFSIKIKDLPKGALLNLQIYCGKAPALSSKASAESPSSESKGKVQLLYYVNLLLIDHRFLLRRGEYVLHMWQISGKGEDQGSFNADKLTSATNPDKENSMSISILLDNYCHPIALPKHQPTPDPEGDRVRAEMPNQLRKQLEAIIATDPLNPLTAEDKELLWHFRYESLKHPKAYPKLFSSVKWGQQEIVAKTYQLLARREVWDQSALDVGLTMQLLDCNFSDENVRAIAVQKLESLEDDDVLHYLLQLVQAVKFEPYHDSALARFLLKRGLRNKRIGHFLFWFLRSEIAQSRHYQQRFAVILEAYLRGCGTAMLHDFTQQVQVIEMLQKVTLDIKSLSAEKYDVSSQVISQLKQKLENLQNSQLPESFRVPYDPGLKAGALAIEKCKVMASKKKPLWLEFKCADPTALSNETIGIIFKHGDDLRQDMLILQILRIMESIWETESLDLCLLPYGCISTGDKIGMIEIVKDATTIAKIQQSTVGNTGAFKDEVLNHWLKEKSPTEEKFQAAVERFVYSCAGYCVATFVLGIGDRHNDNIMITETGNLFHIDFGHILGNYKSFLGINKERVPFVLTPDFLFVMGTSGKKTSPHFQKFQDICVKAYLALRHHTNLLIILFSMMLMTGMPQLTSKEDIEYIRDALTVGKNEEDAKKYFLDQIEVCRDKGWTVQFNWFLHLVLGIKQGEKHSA
Chain of PI3Kδ (p110δ/p85α) Recombinant Human Protein (O00329 whole entry): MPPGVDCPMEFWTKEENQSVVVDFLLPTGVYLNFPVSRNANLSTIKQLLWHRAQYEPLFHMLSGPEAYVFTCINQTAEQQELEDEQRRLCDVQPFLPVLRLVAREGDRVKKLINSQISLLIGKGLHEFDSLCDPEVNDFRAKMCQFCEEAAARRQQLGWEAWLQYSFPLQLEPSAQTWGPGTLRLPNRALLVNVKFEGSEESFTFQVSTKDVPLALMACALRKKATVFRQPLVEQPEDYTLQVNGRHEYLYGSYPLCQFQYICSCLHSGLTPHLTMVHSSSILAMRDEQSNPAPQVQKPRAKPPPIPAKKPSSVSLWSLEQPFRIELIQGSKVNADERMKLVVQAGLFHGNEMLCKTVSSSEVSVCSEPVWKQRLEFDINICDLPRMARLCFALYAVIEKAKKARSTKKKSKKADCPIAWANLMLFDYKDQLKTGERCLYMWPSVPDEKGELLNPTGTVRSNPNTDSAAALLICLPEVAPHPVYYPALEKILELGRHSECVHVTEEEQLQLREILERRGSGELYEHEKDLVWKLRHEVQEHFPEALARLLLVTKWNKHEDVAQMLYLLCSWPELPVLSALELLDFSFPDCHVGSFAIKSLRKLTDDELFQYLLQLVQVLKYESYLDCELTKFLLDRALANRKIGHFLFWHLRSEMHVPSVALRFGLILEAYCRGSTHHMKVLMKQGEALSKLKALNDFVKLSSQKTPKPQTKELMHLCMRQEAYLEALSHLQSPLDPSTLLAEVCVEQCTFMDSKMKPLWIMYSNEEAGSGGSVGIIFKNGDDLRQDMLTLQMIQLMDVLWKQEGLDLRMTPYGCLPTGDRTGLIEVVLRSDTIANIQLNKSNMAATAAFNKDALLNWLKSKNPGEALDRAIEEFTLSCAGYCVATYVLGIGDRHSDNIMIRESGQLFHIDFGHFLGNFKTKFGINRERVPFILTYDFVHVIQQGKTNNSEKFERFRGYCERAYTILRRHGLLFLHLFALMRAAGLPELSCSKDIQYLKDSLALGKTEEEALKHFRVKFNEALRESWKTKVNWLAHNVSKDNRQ
Chain of PI3Kδ (p110δ/p85α) Recombinant Human Protein (P27986 whole entry partner): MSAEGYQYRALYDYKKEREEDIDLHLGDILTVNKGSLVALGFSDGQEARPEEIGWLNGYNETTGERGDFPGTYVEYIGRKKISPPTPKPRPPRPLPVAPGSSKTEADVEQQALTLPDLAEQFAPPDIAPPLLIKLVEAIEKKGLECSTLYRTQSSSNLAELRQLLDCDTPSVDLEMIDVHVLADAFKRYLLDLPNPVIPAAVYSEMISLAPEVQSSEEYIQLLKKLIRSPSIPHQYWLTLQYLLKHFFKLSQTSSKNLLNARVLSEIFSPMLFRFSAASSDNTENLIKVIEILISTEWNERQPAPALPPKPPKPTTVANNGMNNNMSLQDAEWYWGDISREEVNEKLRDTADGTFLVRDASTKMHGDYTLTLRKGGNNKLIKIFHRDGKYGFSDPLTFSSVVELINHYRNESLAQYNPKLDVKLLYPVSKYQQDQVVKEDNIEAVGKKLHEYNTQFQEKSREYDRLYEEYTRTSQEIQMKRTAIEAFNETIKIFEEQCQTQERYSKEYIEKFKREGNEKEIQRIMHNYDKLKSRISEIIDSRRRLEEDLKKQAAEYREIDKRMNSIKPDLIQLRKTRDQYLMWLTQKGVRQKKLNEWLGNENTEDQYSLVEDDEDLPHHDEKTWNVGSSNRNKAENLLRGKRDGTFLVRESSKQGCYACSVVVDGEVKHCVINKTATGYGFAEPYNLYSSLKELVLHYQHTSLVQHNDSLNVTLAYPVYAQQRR

Structure (SMILES)	IC50 [1] [µM]	IC50 [2] [µM]	IC50 ([3]; Homo sapiens) [µM]	IC50 [3] [µM]
COc1cncc(-c2ccnc(-c3nnc(Nc4ccccc4)[nH]3)c2)c1 [Example 70, 5-(5-Methoxy-3,4′-bipyridin-2′-yl)-N-phenyl-4H-1,2,4-triazol-3-amine trifluoroacetate salt]	≤ 0.5	≤ 0.5	> 5	
O=S(=O)(C1CCCC1)n1cc(-c2ccnc(-c3ncc(-c4ccccc4)[nH]3)c2)cn1 [Example 54, 4-(1-(Cyclopentylsulfonyl)-1H-pyrazol-4-yl)-2-(5-phenyl-1H-imidazol-2-yl)pyridine trifluoroacetate salt]	≤ 0.1	≤ 0.1	> 5	
COC[C@@H](NC(=O)c1nc(-c2cc(-c3cncc(N4CCOCC4)c3)ccn2)[nH]c1C)c1ccccc1 [Example 276, N-[(1S)-2-Methoxy-1-phenylethyl]-5-methyl-2-(5-morpholin-4-yl-3,4′-bipyridin-2′-yl) 1H-imidazole-4-carboxamide trifluoroacetate salt]	≤ 0.05	≤ 0.1		≤ 0.3
Clc1ccccc1Cn1cc(-c2ccnc(-c3ncc(-c4ccccc4)[nH]3)c2)cn1 [Example 7, 4-(1-(2-Chlorobenzyl)-1H-pyrazol-4-yl)-2-(5-phenyl-1H-imidazol-2-yl)pyridine trifluoroacetate salt]	≤ 0.5	≤ 0.1	> 5	
Cc1nc(-c2cc(-c3cncc(C(=O)NC(C)C)c3)ccn2)[nH]c1C [Example 157, 2′-(4,5-Dimethyl-1H-imidazol-2-yl)-N-isopropyl-3,4′-bipyridine-5-carboxamide trifluoroacetate salt]	≤ 0.5	≤ 0.1	1 to 5	
N#Cc1ccc(Cn2cc(-c3ccnc(-c4ncc(-c5ccccc5)[nH]4)c3)cn2)cc1 [Example 43, 4-((4-(2-(5-Phenyl-1H-imidazol-2-yl)pyridin-4-yl)-1H-pyrazol-1-yl)methyl)benzonitrile trifluoroacetate salt]	> 0.5	≤ 0.5	> 5	
O=S(=O)(C1CC1)n1cc(-c2ccnc(-c3ncc(-c4ccccc4)[nH]3)c2)cn1 [Example 46, 4-(1-(Cyclopropylsulfonyl)-1H-pyrazol-4-yl)-2-(5-phenyl-1H-imidazol-2-yl)pyridine trifluoroacetate salt]	≤ 0.5	≤ 0.1	> 5	
CCc1cnc(-c2cc(-c3cncc(OC)c3)ccn2)[nH]1 [Example 85, 2′-(5-Ethyl-1H-imidazol-2-yl)-5-methoxy-3,4′-bipyridine trifluoroacetate salt]	> 0.5	≤ 0.5	> 5	
Cc1[nH]c(-c2cc(-c3cncc(N4CCOCC4)c3)ccn2)nc1C(=O)NC1Cc2ccccc2C1 [Example 282, N-(2,3-Dihydro-1H-inden-2-yl)-5-methyl-2-(5-morpholin-4-yl-3,4′-bipyridin-2′-yl)-1H-imidazole-4-carboxamide trifluoroacetate salt]	≤ 0.05	≤ 0.05	0.3 to 1	
Cc1[nH]c(-c2cc(-c3cncc(S(C)(=O)=O)c3)ccn2)nc1C(=O)O [Example 119, 5-Methyl-2-(5-(methylsulfonyl)-3,4′-bipyridin-2′-yl)-1H-imidazole-4-carboxylic acid trifluoroacetate salt]	> 0.5	≤ 0.05	> 5	
Cc1[nH]c(-c2cc(-c3cnn(Cc4ccc(Cl)cc4)c3)ccn2)nc1C(=O)N[C@H]1CCOC1 [Example 295]	≤ 0.5	≤ 0.05	1 to 5	
CS(=O)(=O)c1cncc(-c2ccnc(-c3ncc(Cc4ccccc4)[nH]3)c2)c1 [Example 115, 2′-(5-Benzyl-1H-imidazol-2-yl)-5-(methylsulfonyl)-3,4′-bipyridine trifluoroacetate salt]	≤ 0.05	≤ 0.05	≤ 0.3	
Cc1[nH]c(-c2cc(-c3cncc(S(C)(=O)=O)c3)ccn2)nc1C(=O)N1CC(C#N)C1 [Example 248, 1-({5-Methyl-2-[5-(methylsulfonyl)-3,4′-bipyridin-2′-yl]-lH-imidazol-4-yl}carbonyl)azetidine-3-carbonitrile]	≤ 0.05	≤ 0.05		1 to 5
Cc1nc(-c2cc(-c3cncc(C(=O)N4CCC(c5ccccc5)CC4)c3)ccn2)[nH]c1C [Example 186, 2′-(4,5-Dimethyl-1H-imidazol-2-yl)-5-[(4-phenylpiperidin-1-yl)carbonyl]-3,4′-bipyridine trifluoroacetate salt]	≤ 0.05	≤ 0.05	≤ 0.3	

Second part, led by results:

IC50 [1] [µM]	IC50 [2] [µM]	IC50 ([3]; Homo sapiens) [µM]	Structure (SMILES)	IC50 [3] [µM]
≤ 0.05	≤ 0.05	1 to 5	Cc1nc(-c2cc(-c3cncc(C(=O)N4CCC(C)(O)C4)c3)ccn2)[nH]c1C (racemic) [Example 180, 1-{[2′-(4,5-Dimethyl-1H-imidazol-2-yl)-3,4′-bipyridin-5-yl]carbonyl}-3-methylpyrrolidin-3-ol trifluoroacetate salt]	
≤ 0.05	≤ 0.05	≤ 0.3	Cc1nc(-c2cc(-c3cncc(C(=O)N4CC[C@H](O)C4)c3)ccn2)[nH]c1C [Example 146, (S)-(2′-(4,5-Dimethyl-1H-imidazol-2-yl)-3,4′-bipyridin-5-yl)(3-hydroxypyrrolidin-1-yl)methanone]	
≤ 0.05	≤ 0.05	≤ 0.3	CCC1CCN(C(=O)c2cncc(-c3ccnc(-c4nc(C)c(C)[nH]4)c3)c2)C1 (stereo not drawn) [Example 211, 2′-(4,5-Dimethyl-1H-imidazol-2-yl)-5-[(3-ethylpyrrolidin-1-yl)carbonyl]-3,4′-bipyridine trifluoroacetate salt]	
≤ 0.05	≤ 0.05	0.3 to 1	Cc1nc(-c2cc(-c3cncc(C(=O)N4CCC4C(F)(F)F)c3)ccn2)[nH]c1C (racemic) [Example 184, 2′-(4,5-Dimethyl-1H-imidazol-2-yl)-5-{[2-(trifluoromethyl)azetidin-1-yl]carbonyl}-3,4′-bipyridine trifluoroacetate salt]	
≤ 0.05	≤ 0.05	> 5	COCC(=O)Nc1cncc(-c2ccnc(-c3ncc(-c4ccccc4)[nH]3)c2)c1 [Example 131, 2-Methoxy-N-[2′-(5-phenyl-1H-imidazol-2-yl)-3,4′-bipyridin-5-yl]acetamide Trifluoroacetate Salt]	
≤ 0.05	≤ 0.05	≤ 0.3	CS(=O)(=O)c1cncc(-c2ccnc(-c3ncc(C4CCCC4)[nH]3)c2)c1 [Example 114, 2′-(5-Cyclopentyl-1H-imidazol-2-yl)-5-(methylsulfonyl)-3,4′-bipyridine trifluoroacetate salt]	
≤ 0.05	≤ 0.05	0.3 to 1	Cc1nc(-c2cc(-c3cncc(C(=O)N4CCC(C#N)C4)c3)ccn2)[nH]c1C (racemic) [Example 183, 1-{[2′-(4,5-Dimethyl-1H-imidazol-2-yl)-3,4′-bipyridin-5-yl]carbonyl}pyrrolidine-3-carbonitrile trifluoroacetate salt]	
≤ 0.05	≤ 0.05	≤ 0.3	CS(=O)(=O)c1cncc(-c2ccnc(-c3ncc(-c4ccccc4)[nH]3)c2)c1 [Example 40, 5-(Methylsulfonyl)-2′-(5-phenyl-1H-imidazol-2-yl)-3,4′-bipyridine trifluoroacetate salt]	
≤ 0.05	≤ 0.05	≤ 0.3	Cc1[nH]c(-c2cc(-c3cncc(S(C)(=O)=O)c3)ccn2)nc1C(F)F [Example 121, 2′-[4-(Difluoromethyl)-5-methyl-1H-imidazol-2-yl]-5-(methylsulfonyl)-3,4′-bipyridine Trifluoroacetate Salt]	
≤ 0.05	≤ 0.05	≤ 0.3	Cc1nc(-c2cc(-c3cncc(C4=CCN(S(C)(=O)=O)C4)c3)ccn2)[nH]c1C [Example 237, 2′-(4,5-Dimethyl-1H-imidazol-2-yl)-5-[1-(methylsulfonyl)-2,5-dihydro-1H-pyrrol-3-yl]-3,4′-bipyridine]	
